Here are results for one molecule from US20060183794A1, “Drug composition containing nf-kb inhibitor” (priority 2002, published 2006).

Series [1] deals with ATL cell line MT-2 in SCID mice. In words: Survival of SCID mice intraperitoneally inoculated with ATL cell line MT-2. It counts as in vivo. As to conditions: for mice survived: p<0.05.
Protocol: First, five-week-old male SCID mice (CB17-scid/scid; SLC Japan, Inc (Shizuoka, Japan)) were treated for 3 to 5 days with 1 mg of IL-2 receptor antibody (TM-β1; J. Immunol. 147: 2222-2228, 1991), and intraperitoneally inoculated with the ATL cell line MT-2 (3 to 4×10^7 cells). Subsequently, the mice were intraperitoneally given 4 mg/kg bw or 12 mg/kg bw DHMEQ dissolved in 5% carboxymethyl cellulose (CMC; Sigma) solution three times a week for one month, and their survival probability and status were observed. […] The survival curve was calculated by the Kaplan-Mayer method, and the statistically significant difference was determined by the Cox-Mantel test.
Series [2] addresses T1, NF-κB (Homo sapiens, UniProt P19838+Q04206). Kind of series: Reporter gene (luciferase) assay of NF-κB transcriptional activity in ATL cell lines. It is filed as cell-based. Also on record: endogenous in cells. Conditions: MT-1 and TL-Om1; 5 μg/ml DHM2EQ; remaining activity vs untreated. As for the experimental part:
To examine the transcriptional activity of NF-κB, by using a luciferase construct (6 kB-Luc plasmid), containing six tandem copies of the NF-κB binding sequence, driven with an artificial promoter as a reporter, this plasmid DNA was transiently introduced into the ATL cell lines (MT-1 and TL-Om1) as well as into the control cell line (K562) (transfected on a scale of 2×10^5 cells/transfection using DMRIE-C (Invitrogen)). After 12 hours, treatment with 5 μg/ml DHM2EQ was started. Cells were recovered after 48 hours and the transcriptional activity of NF-κB was evaluated as the enzyme activity of the luciferase. The cell lines not treated with DHM2EQ were also evaluated in the same manner. All experiments were performed three times to obtain average values as well as standard deviations.
Background: A reporter such as luciferase makes a cellular process visible.

Series [3] has as its system MM cells (MM1, MM2, and MM3) of multiple myeloma patients. In words: MTT assay, MM cells from patients' bone marrow. It counts as cell-based, human. As to conditions: 10 μg/ml, 48 hours. As for the experimental part:
(§1) Next, to investigate the inhibitory effect of DHMEQ on proliferation of cells of multiple myeloma (MM) patients, MM cells (MM1, MM2, and MM3) were isolated from patients' bone marrow, incubated for 48 hours at the DHMEQ concentration of 10 μg/ml, and the proliferation-inhibitory effect was examined by the MTT assay. Peripheral blood mononuclear cells (PBMC) isolated from normal peripheral blood were used as control cells. In the figure, the vertical axis indicates the relative values of the MTT values of treated cells versus untreated cells, i.e., (DHMEQ-treated/untreated)×100%.

The subject of series [4] is HUVECs. In words: Toxicity to and proliferation of HUVECs. It is filed as cell-based, human. Conditions: DHMEQ 3 μg/ml.
The test system of series [5] is ICAM-1, VCAM-1, and E-selectin. In words: Western blot of adhesion molecule expression in TNF-α-stimulated HUVECs. As to conditions: HUVECs pretreated with DHMEQ for 2 hours, 10 ng/ml TNF-α. It counts as cell-based, human. How it is done: The protein concentration of this supernatant was determined by a liquid of Coomassie Brilliant Blue (Bio-Rad), and concentration was adjusted. Subsequently, 3×SDS loading buffer (150 mM Tris-HCl: pH 6.8, 30% glycerol, 3% SDS (Kanto Kagaku), 0.03 mg/ml bromophenol blue, 150 μl/ml 2-mercaptoethanol (Kanto Kagaku)) was added at a volume equal to half the volume of the lysis buffer that had been added, followed by boiling for 5 min. Using this as a sample, electrophoresis was performed in a 12.5% polyacrylamide gel. After the electrophoresis, the proteins in the gel were transferred to a PVDF membrane (Amersham) and blocked with TBS buffer (20 mM Tris-HCl: pH7.6, 137 mM NaCl) containing 5% skim milk (Snow Brand). Subsequently, the proteins were reacted with the PVDF membrane using antibodies to ICAM-1 (Santa Cruz), VCAM-1 (Santa Cruz), and E-selectin (Santa Cruz), followed by reactions with secondary antibodies (the secondary antibodies to ICAM-1, VCAM-1, and E-selectin (Amersham and Santa Cruz)) suitable to each primary antibody. Further, color was developed by the ECL method, followed by exposure to a film.
In general terms: A western blot detects proteins with antibodies after separation by electrophoresis.

The test system of series [6] is normal peripheral blood mononuclear cells. In words: MTT assay, normal peripheral blood mononuclear cells. It counts as cell-based, human. As for the experimental part: Mononuclear cells were isolated from normal peripheral blood and DHM2EQ was added at final concentrations of 2, 5, and 10 μg/ml, followed by 72-hour incubation. The proliferation-inhibitory effect was examined by the MTT assay. Cells to which the solvent DMSO had been added in equal volume (0 μg/ml) were used as controls. The cell viability was represented as the ratio to the MTT value of the controls (DHM2EQ-untreated) by letting it=100%.
as §1

Series [7] concerns the target T1, NF-κB. In words: 6 kB-Luc reporter assay of NF-κB transcription in multiple myeloma cell lines. It is filed as cell-based. Also on record: endogenous in cells; host or cells: MM cell lines KMM1, RPMI8226, U266. Conditions: 5 μg/ml, 12-hour treatment; compared with non-treated cells. As for the experimental part: Next, the inhibitory effect on activation of NF-κB was investigated using the reporter assay. First, 6 kB-Luc plasmid was introduced by transfection into the MM cell lines, KMM1, RPMI8226, and U266 (transfected on a scale of a 2×10^5 cells/transfection using DMRIE-C (Invitrogen)) After 12 hours, 12-hour treatment of cells with 5 μg/ml DHM2EQ was started and the suppressive effect of DHMEQ on the transcription by NF-κB was examined. […] The suppressive effect of DHMEQ on transcription by NF-κB was therefore indicated.

In series [8] the test system is human pancreatic cancer cell lines, Panc-1, PK-8, and Colo357. Kind of series: In vitro proliferation of human pancreatic cancer cell lines, DHMEQ with irradiation. It counts as cell-based. How it is done:
The in vitro suppressive effect of DHMEQ on proliferation of human pancreatic cancer cell lines when DHMEQ and irradiation are used in combination was investigated. The human pancreatic cancer cell lines, Panc-1, PK-8, and Colo357 were plated 10 cm dishes (5×10^5 cells each). After two days, cells were irradiated with either 2.5 Gy or 10 Gy radiation, followed by administration of 10 μg/ml DHMEQ for 4 hours in the combinatin group. The number of cells was measured after 24 hours. Either the point of the completion of irradiation or the point of the start of the drug administration was assumed to be 0 hours.

Series [9] relates to multiple myeloma cell line 196TIB. Kind of series: MTT assay, proliferation of multiple myeloma cell line 196TIB. It counts as cell-based. As for the experimental part:
Cells from the ATL cell lines (MT-1 and TL-Om1) and a control cell line (K562) were plated in 96-well plates at 1×10^5 cells/well and DHM2EQ was added at the desired final concentrations (2, 5, and 10 μg/ml). Cells to which the solvent DMSO had been added in equal volume (0 μg/ml) were used as […] incubation for 72 hours, cell viability was judged by the MTT assay. Relative MTT values were obtained as the ratio of the MMT values of DHM2EQ-treated cells to those of DHM2EQ-untreated cells, i.e., (MTT values of DHM2EQ-treated cells/MTT values of DHM2EQ-untreated cells)×100(%).
Concentration dependence analysis of the inhibitory effect of DHM2EQ on proliferation of multiple myeloma cells was performed in the same manner as in Example 2. As multiple myeloma cells, the multiple myeloma cell line 196TIB was used.
On the technique in general: Formazan colour is commonly taken as a measure of viable cells.

T1 sequence (Q04206 whole entry): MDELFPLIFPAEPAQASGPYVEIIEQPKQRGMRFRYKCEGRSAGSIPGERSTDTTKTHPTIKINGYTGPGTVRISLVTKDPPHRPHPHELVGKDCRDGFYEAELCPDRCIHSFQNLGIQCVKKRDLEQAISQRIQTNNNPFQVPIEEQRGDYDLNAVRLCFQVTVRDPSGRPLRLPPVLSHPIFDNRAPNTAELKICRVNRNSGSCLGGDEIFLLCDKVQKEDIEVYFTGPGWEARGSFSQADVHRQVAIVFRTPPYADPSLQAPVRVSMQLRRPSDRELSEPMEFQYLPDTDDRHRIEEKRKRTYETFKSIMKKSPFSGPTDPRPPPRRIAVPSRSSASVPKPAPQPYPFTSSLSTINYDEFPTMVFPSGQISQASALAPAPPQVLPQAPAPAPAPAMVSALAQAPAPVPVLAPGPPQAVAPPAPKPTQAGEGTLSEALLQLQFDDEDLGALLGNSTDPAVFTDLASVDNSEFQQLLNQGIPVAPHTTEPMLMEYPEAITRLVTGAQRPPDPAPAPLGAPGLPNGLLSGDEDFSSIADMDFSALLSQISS
T1 sequence (P19838 1-433 limits assumed): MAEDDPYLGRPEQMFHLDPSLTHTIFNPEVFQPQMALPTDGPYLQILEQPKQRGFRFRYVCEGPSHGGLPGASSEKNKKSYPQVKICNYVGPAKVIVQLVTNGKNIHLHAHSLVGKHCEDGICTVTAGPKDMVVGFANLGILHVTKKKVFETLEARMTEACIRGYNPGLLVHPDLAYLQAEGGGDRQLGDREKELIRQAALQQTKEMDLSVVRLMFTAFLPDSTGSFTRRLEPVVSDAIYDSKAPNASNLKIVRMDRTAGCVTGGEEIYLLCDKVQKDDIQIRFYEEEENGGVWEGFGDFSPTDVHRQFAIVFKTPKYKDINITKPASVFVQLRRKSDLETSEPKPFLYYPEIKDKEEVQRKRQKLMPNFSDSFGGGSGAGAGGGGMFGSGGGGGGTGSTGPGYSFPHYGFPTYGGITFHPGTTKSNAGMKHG

On to `O=C(NC1=CC(=O)C2OC2C1O)c1ccccc1O` (stereo not shown) [DHMEQ, 5,6-epoxy-4-hydroxy-3-salicyloylamino-2-cyclohexenone], for which the mice survived in series [1] (4 mg/kg i.p. three times a week for one month, about 200 days, control all 5 dead) is recorded as 4 out of 6; in series [1] (12 mg/kg i.p. three times a week for one month, about 30 days, control 4 out of 5 dead), 5 out of 6. Moreover, the “toxicity, anomalies in body weights etc.” value in [1] (SCID mice, up to three volumes of 4 mg/kg) is “toxicity was not noted”. Further, the “luciferase activity suppressed to (NF-κB transcriptional activity)” value in [2] is on record as “about 50%”. Further, the “proliferation of MM cells from patients (MTT)” value in series [3] is given as “proliferation was suppressed”. In addition, the “toxicity to HUVECs and suppression of their proliferation” value in series [4] is “neither exhibited toxicity to HUVECs nor suppressed their proliferation”. Further, in [5], the “expression of ICAM-1, VCAM-1 and E-selectin” value is “markedly suppressed”. The “proliferation of normal peripheral blood mononuclear cells (MTT)” value in series [6] (2, 5, 10 μg/ml, 72 hours) is given as “almost no inhibitory effect”. Further, the “influence on peripheral blood mononuclear cells (MTT)” value in [6] (PBMC control, 10 μg/ml, 48 hours) is reported as “almost no influence”. For the same molecule, in series [7], the “transcription by NF-κB suppressed by (reporter assay)” value is “about 50%”. In addition, in series [8] (Colo357 and Panc-1, 10 μg/ml 4 hours after irradiation), the “suppressive effect on proliferation in combination with irradiation” value is “synergistic suppressive effect”. In addition, in series [8] (Colo357 and Panc-1, combination with irradiation), the “enhancement of irradiation effect (2.5 Gy to 10 Gy or equivalent)” value was “four-fold”. For the same molecule, the “suppressive effect on proliferation, DHMEQ alone” value in [8] (PK-8 and Colo357, 10 μg/ml, 4-hour contact, cell number after 24 hours) was “sufficient suppressive effect”. Moreover, the “radiation dose of equal effect” value in series [8] (PK-8 and Colo357, 10 μg/ml, 4 hours) turned out to be 2.5 Gy. In series [8] (Panc-1), the “effectiveness of DHMEQ alone” value was “less effective”. Further, the “cell proliferation, concentration dependence” value in series [9] is reported as “inhibited in proportion to the DHM2EQ concentrations added”.
